This passage reports IC50 results from patent publication US20220296573A1, “NOVEL COMPOUNDS AND PHARMACEUTICAL COMPOSITIONS THEREOF FOR THE TREATMENT OF INFLAMMATORY DISORDERS” (Galapagos NV, priority 2019, published 2022).

This test concerns CL097 triggered IFNα release in human whole blood. As to the kind of experiment: Ex vivo human IFNα release inhibition (whole blood assay). The test is classed as cell-based. The note with it: CL097 2 μg/mL, 3 h 30 min. An excerpt:
The aim of the assay is to evaluate the activity of compounds of the invention on the activated TLR/IRAK-4 pathway in an ex vivo human whole blood setting. Toll-like receptors (TLRs) are pattern recognition receptors that recognize a wide variety of microbial molecules, called pathogen-associated molecular patterns (PAMPs). Human TLR7 and TLR8 recognize imidazoquinoline compounds (e.g., CL097—CAS n #1026249-18-2) and single stranded RNAs as their natural ligands. Activation of TLRs leads to the production of several cytokines (e.g., IFNα, TNFα, IL-8, IL-6) by the TLR agonist-treated cells, whereas IRAK4 leads to the production of IFNα. Cytokine release is used as readout in this assay and represents a measure for the level of inhibition of the TLR/IRAK-4 pathway by the tested compound. It should be noted that in the context of the complete organism, other sources for these cytokines exist that are not dependent on the TLR/IRAK-4 pathway, such as e.g., macrophages (upon activation of the Fcγ receptor (Yan et al. 2012)) or T cells (upon activation of the T cell receptor (Brehm, Daniels, and Welsh 2005)).
Blood is collected from healthy volunteers into lithium heparin tubes by venipuncture, then gently inverted several times to prevent clotting and incubated for at least 15 min at 37° C. on a rocking mixer shaker. Then, 100 μL of blood is dispensed into polypropylene 96-well microplate and pre-incubated in duplicate with 0.3% DMSO or test compound at different concentrations (from 30 to 0.01 μM, 3-fold dilutions to get 0.3% DMSO at the final) for 15 min at 37° C. After this pre-incubation, blood is triggered with CL097 (2 μg/mL from 1 mg/mL solution in water; InvivoGen, tlr1-c97) for 3 h 30 min at 37° C. Microtubes are centrifuged at 5000×g for 10 min at 4° C. and approximately 40 μL of plasma are collected into a polystyrene 96-well plate. Plasma can be analyzed freshly, within 30 min after triggering, or frozen at −80° C. Finally, the quantification of IFNα and IFNα were performed in the plasma using AlphaLISA Kit for […] according to the manufacturer's instructions and read on the Ensight (PerkinElmer).
A standard curve was created by plotting on log-log the mean absorbance on the y-axis against the concentration on the x-axis and a 4PL was made through the points. For each blood sample, the IFNα concentrations of the samples were determined from the fit.
Data were then expressed as a percentage of inhibition (PIN) for each replicate using the formula:
With mean IFNα with CL097=mean IFNα concentration of replicate samples triggered with CL097; IFNαsample1=IFNα concentration of sample 1; mean IFNα with vehicle=mean IFNα concentration of replicate samples treated with vehicle.
Curve fitting for pIC50 determination were generated using mean PIN±sem. Graphs and pIC50 calculations were derived using Prism 5.03 software (GraphPad).
As to `COc1cc2nc(C3COCCO3)cn2cc1NC(=O)c1cccn(C2CC2)c1=O` (racemic) [Compound 1, 1-cyclopropyl-N-[2-(1,4-dioxan-2-yl)-7-methoxy-imidazo[1,2-a]pyridin-6-yl]-2-oxo-pyridine-3-carboxamide], the IC50 – broadly, the concentration needed to halve the response being measured – fell in the range of 0.1 to 500 nM.
The value for `COc1cc2nc(C3COCCO3)cn2cc1NC(=O)c1cccn(C2CC2)c1=O` (single isomer, unassigned) [Compound 7, 1-cyclopropyl-N-[2-(1,4-dioxan-2-yl)-7-methoxy-imidazo[1,2-a]pyridin-6-yl]-2-oxo-pyridine-3-carboxamide] was 0.1 to 500 nM; that for `COc1cc2nc(C3COCCO3)cn2cc1NC(=O)c1cccn(C2CC2)c1=O` (single isomer, unassigned) [Compound 8, 1-cyclopropyl-N-[2-(1,4-dioxan-2-yl)-7-methoxy-imidazo[1,2-a]pyridin-6-yl]-2-oxo-pyridine-3-carboxamide] was 0.1 to 500 nM; that for `COc1cc2nc(C3CCOCC3)cn2cc1NC(=O)c1cccc(C(F)(F)F)n1` [Compound 2, N-(7-methoxy-2-tetrahydropyran-4-yl-imidazo[1,2-a]pyridin-6-yl)-6-(trifluoromethyl)pyridine-2-carboxamide] was greater than 5000 nM.
For the molecule `COc1cc2nc(C3CCOCC3)cn2cc1NC(=O)c1cccn(C2CC2)c1=O` [Compound 3, (1-cyclopropyl-N-[7-methoxy-2-(oxan-4-yl)imidazo[1,2-a]pyridin-6-yl]-2-oxopyridine-3-carboxamide)], the IC50 was in the range of 500 to 1000 nM.
The value for `COc1cc2nc(C3COCCO3)cn2cc1NC(=O)c1cccn(C2CCC2)c1=O` (stereo not shown) [Compound 5, 1-cyclobutyl-N-[2-(1,4-dioxan-2-yl)-7-methoxy-imidazo[1,2-a]pyridin-6-yl]-2-oxo-pyridine-3-carboxamide] was 1000 to 5000 nM; that for `NC(=O)c1cc2nc(C3COCCO3)cn2cc1NC(=O)c1cccc(C(F)(F)F)n1` (stereo not shown) [Compound 6, 2-(1,4-dioxan-2-yl)-6-[[6-(trifluoromethyl)pyridine-2-carbonyl]amino]imidazo[1,2-a]pyridine-7-carboxamide] was 1000 to 5000 nM; that for `CNC(=O)c1cc2nc(C3COCCO3)cn2cc1NC(=O)c1cccc(C(F)(F)F)n1` (stereo not shown) [Compound 9, 2-(1,4-dioxan-2-yl)-N-methyl-6-(6-(trifluoromethyl)picolinamido)imidazo[1,2-a]pyridine-7-carboxamide] was 1000 to 5000 nM.
Next, `CC(F)(F)c1cccc(C(=O)Nc2cn3cc(C4COCCO4)nc3cc2C(N)=O)n1` (stereo not shown) [Compound 11, 6-(6-(1,1-difluoroethyl)picolinamido)-2-(1,4-dioxan-2-yl)imidazo[1,2-a]pyridine-7-carboxamide]: 500 to 1000 nM; `COc1cc2nc(C3CCS(=O)(=O)CC3)cn2cc1NC(=O)c1cccn(C2CC2)c1=O` [Compound 23, 1-cyclopropyl-N-(2-(1,1-dioxidotetrahydro-2H-thiopyran-4-yl)-7-methoxyimidazo[1,2-a]pyridin-6-yl)-2-oxo-1,2-dihydropyridine-3-carboxamide]: 0.1 to 500 nM.
